# Experimental data: article PMC10101059, “Rational Design of Stapled Antimicrobial Peptides to Enhance Stability and In Vivo Potency against Polymicrobial Sepsis” (Microbiology Spectrum, 2023)
# Where two headings read alike, the source gives them in different places. Bridge positions count the residues as written; N and C are the ends. Square brackets hold non-standard residues; d marks the D form. Peptide text beside a SMILES is read from it. R5 = C=CCCC[C@@](C)(N)C(=O)O
# What was measured:
# [1] = tested on: MDR A. baumannii 1019; assay: microbe, parasite or virus in culture; type: cell-based, Acinetobacter baumannii
# Description: (§1) The antimicrobial assay was performed according to a modified National Committee for Clinical Laboratory Standards (NCCLS) protocol ([41], [42]). Briefly, 5 × 10^5 CFU/mL bacterial cells were treated with various peptide concentrations and incubated at 37 ± 2°C for 16 to 20 h. The lowest concentration with clear wells was recorded as the MIC for each test molecule. The clear wells were further plated in Mueller-Hinton agar (MHA) plates, followed by incubation overnight at 37 ± 2°C. After plating, the lowest concentration at which no growth was observed was recorded as the MBC. For the serum sensitivity assay, the antimicrobial activity of the peptides was tested in medium containing 50% human serum ([43], [44]).
# [2] = tested on: MDR A. baumannii 1033; assay: microbe, parasite or virus in culture; type: cell-based, Acinetobacter baumannii
# Description: as §1
# [3] = tested on: MDR A. baumannii 14B0091; assay: microbe, parasite or virus in culture; type: cell-based, Acinetobacter baumannii
# Description: as §1
# [4] = tested on: MDR A. baumannii 1607; assay: microbe, parasite or virus in culture; type: cell-based, Acinetobacter baumannii; conditions: for MBC: read-out: MBC
# Description: as §1
# [5] = tested on: MDR A. baumannii 1702; assay: microbe, parasite or virus in culture; type: cell-based, Acinetobacter baumannii
# Description: as §1
# [6] = tested on: MDR A. baumannii 2088; assay: microbe, parasite or virus in culture; type: cell-based, Acinetobacter baumannii; conditions: for MBC: read-out: MBC; for MIC: read-out: MIC
# Description: as §1
# [7] = tested on: MDR A. baumannii 2962; assay: microbe, parasite or virus in culture; type: cell-based, Acinetobacter baumannii
# Description: as §1
# [8] = tested on: MDR A. baumannii 2982; assay: microbe, parasite or virus in culture; type: cell-based, Acinetobacter baumannii
# Description: as §1
# [9] = tested on: MDR A. baumannii 2997; assay: microbe, parasite or virus in culture; type: cell-based, Acinetobacter baumannii
# Description: as §1
# [10] = tested on: MDR A. baumannii 2998; assay: microbe, parasite or virus in culture; type: cell-based, Acinetobacter baumannii; conditions: for MBC: read-out: MBC
# Description: as §1
# [11] = tested on: MDR A. baumannii 3618; assay: microbe, parasite or virus in culture; type: cell-based, Acinetobacter baumannii
# Description: as §1
# [12] = tested on: MDR A. baumannii 921; assay: microbe, parasite or virus in culture; type: cell-based, Acinetobacter baumannii
# Description: as §1
# [13] = tested on: A. baumannii; assay: Serial passage (induced resistance) assay; type: cell-based, Acinetobacter baumannii; conditions: after serial passage for 15 cycles
# Description: The experimental procedure was performed according to the MIC protocol for A. baumannii described above. Subsequently, bacterial samples from sub-MIC wells were passaged, and the MIC was estimated again. This process was repeated for 15 cycles, and the change in MIC over […] was reported ([23]).
# [14] = tested on: A. baumannii biofilm; assay: Biofilm rupture assay; type: cell-based, Acinetobacter baumannii; conditions: even at 4× MIC
# Description: (ii) Biofilm rupture assay. Fifty μL of A. baumannii bacterial strains suspension cultures (2 × 10^6 CFU/mL) were plated and incubated in a shaking incubator for 24 h. Then, the wells were washed with PBS and treated with 100 μL of peptide/drug at various concentrations. The plates were incubated for 24 h and then washed with PBS. The wells were treated with 100% methanol for 15 min, and the residual solution was washed followed by drying at room temperature. After the wells were dry, 100 μL of 0.02% crystal violet solution was added, followed by incubation for 30 min at room temperature. The wells were then washed with water and dried for an appropriate length of time. Once the wells were dry, 100 μL of 33% acetic acid was added to the wells and they were incubated at room temperature for 1 h. Absorbance was recorded at 595 nm ([55]).
# [15] = tested on: MDR A. baumannii 2088; assay: Checkerboard microdilution assay (FICI); type: cell-based, Acinetobacter baumannii; conditions: for MIC: read-out: Single drug treatment MIC; for TP4-3 and meropenem combined MIC: MIC of each agent in combination
# Description: (§2) The FICI was measured using a standard checkerboard microdilution assay ([57]). Two-fold dilutions of antibiotics were made across the x axis, and two-fold peptide dilutions were made across the y axis. Next, bacteria were added at 5 × 10^5 CFU/well (A. baumannii), followed by incubation at 37 ± 2°C for 16 to 20 h. FIC indices were calculated according to the following equations: FICI = FIC1 + FIC2; FIC1 = (MIC12 combined)/MIC1; FIC2 = (MIC12 combined)/MIC2. The combined efficacy was estimated as follows: FICI ≤ 0.5, synergistic; 0.5 to 1, additive; 1 to 2, indifferent; ≥2, antagonistic.
# [16] = tested on: MDR A. baumannii 2997; assay: Checkerboard microdilution assay (FICI); type: cell-based, Acinetobacter baumannii; conditions: for MIC: read-out: Single drug treatment MIC; for TP4-3 and meropenem combined MIC: MIC of each agent in combination
# Description: as §2
# [17] = tested on: MDR A. baumannii 2998; assay: Checkerboard microdilution assay (FICI); type: cell-based, Acinetobacter baumannii; conditions: for MIC: read-out: Single drug treatment MIC; for TP4-3 and meropenem combined MIC: MIC of each agent in combination
# Description: as §2
# [18] = tested on: MDR A. baumannii 3618; assay: Checkerboard microdilution assay (FICI); type: cell-based, Acinetobacter baumannii; conditions: for MIC: read-out: Single drug treatment MIC; for TP4-3 and meropenem combined MIC: MIC of each agent in combination
# Description: as §2
# [19] = tested on: E. aerogenes; assay: microbe, parasite or virus in culture; type: cell-based, Enterobacter aerogenes; conditions: for MIC: read-out: Single drug treatment MIC; for TP4-3 and meropenem combined MIC: MIC of each agent in combination
# [20] = tested on: E. coli; assay: microbe, parasite or virus in culture; type: cell-based, Escherichia coli; conditions: for MIC: read-out: Single drug treatment MIC; for TP4-3 and meropenem combined MIC: MIC of each agent in combination
# [21] = tested on: S enterica; assay: Checkerboard microdilution assay (FICI); type: cell-based, Salmonella enterica; conditions: for TP4-3 and meropenem combined MIC: MIC of each agent in combination, TP4-3 and M
# [22] = Acinetobacter baumannii, MHB medium
# [23] = HS, MH medium containing 50% human serum
# [24] = Acinetobacter baumannii, MHB medium, read-out: MBC
# [25] = Acinetobacter baumannii, MHB medium, read-out: MIC
# [26] = HS, MH medium containing 50% human serum, read-out: MBC
# [27] = HS, MH medium containing 50% human serum, read-out: MIC
smiles,measurement,setting,value
C[C@@H](O)[C@H]1C(=O)N2C(C(=O)O)=C(S[C@@H]3CN[C@H](C(=O)N(C)C)C3)[C@H](C)[C@H]12 [Meropenem],MBC,[1]; [22],> 25 µM
same,MIC,[1]; [22],> 25 µM
same,MBC,[1]; [23],>25 µM
same,MIC,[1]; [23],>25 µM
same,MBC,[2]; [24],> 25 µM
same,MIC,[2]; [25],> 25 µM
same,MBC,[2]; [26],>25 µM
same,MIC,[2]; [27],>25 µM
same,MBC,[3]; [22],> 25 µM
same,MIC,[3]; [22],> 25 µM
same,MBC,[3]; [23],>25 µM
same,MIC,[3]; [23],>25 µM
same,MIC,[4]; [22],> 25 µM
same,MBC,[4]; [22],> 25 µM
same,MIC,[4]; [23],>25 µM
same,MBC,[4]; [23],>25 µM
same,MBC,[5]; [24],> 25 µM
same,MIC,[5]; [25],> 25 µM
same,MBC,[5]; [26],>25 µM
same,MIC,[5]; [27],>25 µM
same,MBC,[6]; [22],> 25 µM
same,MIC,[6]; [22],> 25 µM
same,MBC,[6]; [23],>25 µM
same,MIC,[6]; [23],>25 µM
same,MBC,[7]; [22],> 25 µM
same,MIC,[7]; [22],> 25 µM
same,MBC,[7]; [23],>25 µM
same,MIC,[7]; [23],>25 µM
same,MBC,[8]; [22],> 25 µM
same,MIC,[8]; [22],> 25 µM
same,MBC,[8]; [23],>25 µM
same,MIC,[8]; [23],>25 µM
same,MBC,[9]; [24],> 25 µM
same,MIC,[9]; [25],> 25 µM
same,MBC,[9]; [26],>25 µM
same,MIC,[9]; [27],>25 µM
same,MIC,[10]; [22],> 25 µM
same,MBC,[10]; [22],> 25 µM
same,MIC,[10]; [23],>25 µM
same,MBC,[10]; [23],>25 µM
same,MBC,[11]; [22],> 25 µM
same,MIC,[11]; [22],> 25 µM
same,MBC,[11]; [23],>25 µM
same,MIC,[11]; [23],>25 µM
same,MBC,[12]; [22],> 25 µM
same,MIC,[12]; [22],> 25 µM
same,MBC,[12]; [23],>25 µM
same,MIC,[12]; [23],>25 µM
same,net increase in the MIC,[13],53 fold
same,mature biofilm rupture,[14],minor potential for causing biofilm rupture
same,MIC,[15]; Acinetobacter baumannii,400 µM
same,TP4-3 and meropenem combined MIC,[15]; TP4-3 and M,100 µM
same,MIC,[16]; Acinetobacter baumannii,200 µM
same,TP4-3 and meropenem combined MIC,[16]; TP4-3 and M,12.5 µM
same,MIC,[17]; Acinetobacter baumannii,400 µM
same,TP4-3 and meropenem combined MIC,[17]; TP4-3 and M,50 µM
same,MIC,[18]; Acinetobacter baumannii,200 µM
same,TP4-3 and meropenem combined MIC,[18]; TP4-3 and M,25 µM
same,MIC,[19]; Klebsiella aerogenes,0.39 µM
same,TP4-3 and meropenem combined MIC,[19]; TP4-3 and M,0.097 µM
same,MIC,[20]; Escherichia coli,3.13 µM
same,TP4-3 and meropenem combined MIC,[20]; TP4-3 and M,0.097 µM
same,TP4-3 and meropenem combined MIC,[21],0.19 µM
same,MIC,"[21]; Salmonella enterica, read-out: Single drug treatment MIC",6.25 µM
"CC[C@H](C)[C@H](NC(=O)[C@@H](NC(=O)[C@@H](N)Cc1ccccc1)[C@@H](C)CC)C(=O)N[C@]1(C)CCCC=CCCC[C@](C)(C(=O)NCC(=O)N[C@@H](CC(C)C)C(=O)N[C@@H](Cc2ccccc2)C(=O)N[C@@H](CCCCN)C(=O)N[C@@H](CCCCN)C(=O)N[C@@H](CCCCN)C(=O)N[C@@H](C)C(=O)NCC(=O)N[C@@H](C)C(=O)N[C@]2(C)CCCC=CCCC[C@](C)(C(=O)N[C@H](C(=O)N[C@@H](CCCCN)C(=O)N[C@@H](CCCCN)C(=O)O)[C@@H](C)CC)NC(=O)[C@H](CCCCN)NC(=O)[C@H](CCCCN)NC(=O)[C@H](CCCCN)NC2=O)NC(=O)[C@H](CO)NC(=O)[C@H](CCCCN)NC(=O)[C@H](CCCCN)NC1=O [TP4-3] (H-FII[R5]KKS[R5]GLFKKKAGA[R5]KKK[R5]IKK-OH; staple 4-8, 18-22; N-terminus and C-terminus assumed)",MBC,[1]; MDR 1019,12.5 µM
same,MIC,[1]; MDR 1019,12.5 µM
same,MBC,[2]; MDR 1033,6.25 to 12.5 µM
same,MIC,[2]; MDR 1033,6.25 to 12.5 µM
same,MBC,[3]; MDR 14B0091,3.13 µM
same,MIC,[3]; MDR 14B0091,3.13 µM
same,MIC,[4]; MDR 1607,6.25 µM
same,MBC,[4]; MDR 1607,12.5 µM
same,MBC,[5]; MDR 1702,3.13 to 6.25 µM
same,MIC,[5]; MDR 1702,3.13 to 6.25 µM
same,MBC,[6]; MDR 2088,6.25 µM
same,MBC,[7]; MDR 2962,12.5 µM
same,MIC,[7]; MDR 2962,6.25 µM
same,MBC,[8]; MDR 2982,6.25 µM
same,MIC,[8]; MDR 2982,6.25 µM
same,MBC,[9]; MDR 2997,3.13 to 6.25 µM
same,MIC,[9]; MDR 2997,3.13 to 6.25 µM
same,MBC,[10]; MDR 2998,12.5 µM
same,MBC,[11]; MDR 3618,12.5 µM
same,MBC,[12]; MDR 921,6.25 µM
same,MIC,[12]; MDR 921,6.25 µM
same,net increase in the MIC,[13],5 fold
same,mature biofilm rupture,[14],minor potential for causing biofilm rupture
same,TP4-3 and meropenem combined MIC,[15]; TP4-3 and D,3.13 µM
same,TP4-3 and meropenem combined MIC,[15]; TP4-3 and M,3.13 µM
same,MIC,[15],6.25 µM
same,TP4-3 and meropenem combined MIC,[16]; TP4-3 and D,3.13 µM
same,TP4-3 and meropenem combined MIC,[16]; TP4-3 and M,3.13 µM
same,MIC,[16],6.25 µM
same,TP4-3 and meropenem combined MIC,[17]; TP4-3 and D,3.13 µM
same,TP4-3 and meropenem combined MIC,[17]; TP4-3 and M,3.13 µM
same,MIC,[17],6.25 µM
same,TP4-3 and meropenem combined MIC,[18]; TP4-3 and D,3.13 µM
same,TP4-3 and meropenem combined MIC,[18]; TP4-3 and M,3.13 µM
same,MIC,[18],12.5 µM
same,TP4-3 and meropenem combined MIC,[19]; TP4-3 and D,3.13 µM
same,TP4-3 and meropenem combined MIC,[19]; TP4-3 and M,0.78 µM
same,MIC,[19],25 µM
same,TP4-3 and meropenem combined MIC,[20]; TP4-3 and D,6.25 µM
same,TP4-3 and meropenem combined MIC,[20]; TP4-3 and M,0.78 µM
same,MIC,[20],25 µM
same,TP4-3 and meropenem combined MIC,[21],0.39 µM
